Results taken from the supplement of paper PMC9663587.

Experiments:
Paclitaxel = compound: CC(=O)O[C@H]1C(=O)[C@@]2(C)[C@H]([C@H](OC(=O)c3ccccc3)[C@]3(O)C[C@H](OC(=O)[C@H](O)[C@@H](NC(=O)c4ccccc4)c4ccccc4)C(C)=C1C3(C)C)[C@]1(OC(C)=O)CO[C@@H]1C[C@@H]2O [Paclitaxel]
BSJ-03-123 [1] = compound: T1, CC(=O)c1c(C)c2cnc(Nc3ccc(N4CCN(CCOCCOCCOCCNC(=O)COc5cccc6c5C(=O)N(C5CCC(=O)NC5=O)C6=O)CC4)cn3)nc2n(C2CCCC2)c1=O [BSJ-03-123]
INK128/MLN0128 = compound: CC(C)n1nc(-c2ccc3oc(N)nc3c2)c2c(N)ncnc21 [INK128/MLN0128]
[2] = compound: CCN1CCN(Cc2ccc(Nc3ncc(F)c(-c4cc(F)c5nc(C)n(C(C)C)c5c4)n3)nc2)CC1
Neratinib/HKI272 [3] = compound: T2, CCOc1cc2ncc(C#N)c(Nc3ccc(OCc4ccccn4)c(Cl)c3)c2cc1NC(=O)/C=C/CN(C)C [Neratinib/HKI272]
Volasertib/BI6727 = compound: CC[C@@H]1C(=O)N(C)c2cnc(Nc3ccc(C(=O)N[C@H]4CC[C@H](N5CCN(CC6CC6)CC5)CC4)cc3OC)nc2N1C(C)C [Volasertib/BI6727]
LEE011/Ribociclib [4] = compound: T3, CN(C)C(=O)c1cc2cnc(Nc3ccc(N4CCNCC4)cn3)nc2n1C1CCCC1 [LEE011/Ribociclib]
THZ531 = compound: CN(C)C/C=C/C(=O)Nc1ccc(C(=O)N2CCC[C@@H](Nc3ncc(Cl)c(-c4c[nH]c5ccccc45)n3)C2)cc1 [THZ531]
ABT-737 = compound: CN(C)CC[C@H](CSc1ccccc1)Nc1ccc(S(=O)(=O)NC(=O)c2ccc(N3CCN(Cc4ccccc4-c4ccc(Cl)cc4)CC3)cc2)cc1[N+](=O)[O-] [ABT-737]
[5] = compound: COc1ccc2c(c1)[C@]1(C[C@H]1c1ccc3c(/C=C/c4ccc(CN5C[C@@H](C)O[C@@H](C)C5)cc4)n[nH]c3c1)C(=O)N2
Pictilisib/GDC0941 = compound: CS(=O)(=O)N1CCN(Cc2cc3nc(-c4cccc5[nH]ncc45)nc(N4CCOCC4)c3s2)CC1 [Pictilisib/GDC0941]
Ceritinib/LDK378 = compound: Cc1cc(Nc2ncc(Cl)c(Nc3ccccc3S(=O)(=O)C(C)C)n2)c(OC(C)C)cc1C1CCNCC1 [Ceritinib/LDK378]
Taselisib/GDC0032 = compound: Cc1nc(-c2cn3c(n2)-c2ccc(-c4cnn(C(C)(C)C(N)=O)c4)cc2OCC3)n(C(C)C)n1 [Taselisib/GDC0032]
Tivantinib/ARQ197 = compound: O=C1NC(=O)[C@@H](c2cn3c4c(cccc24)CCC3)[C@@H]1c1c[nH]c2ccccc12 [Tivantinib/ARQ197]
YKL-5-124 = compound: C=CC(=O)Nc1ccc(C(=O)Nc2[nH]nc3c2CN(C(=O)N[C@H](CN(C)C)c2ccccc2)C3(C)C)cc1 [YKL-5-124]; assay: GR value, 72 h; higher = faster growth (1 = untreated, <0 = killing);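 also: breast cancer and non-malignant breast epithelial lines, nine half-log doses, viable cells counted by Hoechst and LIVE/DEAD dye imaging versus time-zero plates and DMSO controls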
BSJ-03-123 [6] = compound: T1, BSJ-03-123; assay: as above
[7] = compound: CCN1CCN(Cc2ccc(Nc3ncc(F)c(-c4cc(F)c5nc(C)n(C(C)C)c5c4)n3)nc2)CC1; assay: as above
Neratinib/HKI272 [8] = compound: T2, Neratinib/HKI272; assay: as above
[9] = compound: CCc1cnn2c(NCc3ccc[n+]([O-])c3)cc(N3CCCC[C@H]3CCO)nc12; assay: as above
LEE011/Ribociclib [10] = compound: T3, LEE011/Ribociclib; assay: as above
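For GR50, 72 h in this document: breast cancer and non-malignant breast epithelial cell lines, Deep Dye Drop or Dye Drop imaging, nine half-log doses, GR normalized to time-zero plates and DMSO-only controls.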

## SUM52PE
Paclitaxel
  GR50, 72 h: 0.00165 µM
BSJ-03-123 [1]
  GR50, 72 h: 3.42 µM
INK128/MLN0128
  GR50, 72 h: 0.0172 µM
[2]
  GR50, 72 h: 0.376 µM
Neratinib/HKI272 [3]
  GR50, 72 h: 3.11 µM
Volasertib/BI6727
  GR50, 72 h: 0.0198 µM
LEE011/Ribociclib [4]
  GR50, 72 h: > 10 µM
THZ531
  GR50, 72 h: 0.149 µM
ABT-737
  GR50, 72 h: 9.12 µM
[5]
  GR50, 72 h: 0.00559 µM
Pictilisib/GDC0941
  GR50, 72 h: 0.477 µM
Ceritinib/LDK378
  GR50, 72 h: > 10 µM
Taselisib/GDC0032
  GR50, 72 h: 0.0267 µM
Tivantinib/ARQ197
  GR50, 72 h: 0.33 µM
YKL-5-124; 0.001 µM
  GR value: 0.72 GR
YKL-5-124; 0.003162 µM
  GR value: 0.654 GR
YKL-5-124; 0.01 µM
  GR value: 0.573 GR
YKL-5-124; 0.03162 µM
  GR value: 0.552 GR
YKL-5-124; 0.1 µM
  GR value: 0.437 GR
YKL-5-124; 0.3162 µM
  GR value: 0.391 GR
YKL-5-124; 1 µM
  GR value: 0.364 GR
YKL-5-124; 3.162 µM
  GR value: 0.227 GR
YKL-5-124; 10 µM
  GR value: 0.0112 GR
BSJ-03-123 [6]; 0.001 µM
  GR value: 1.02 GR
BSJ-03-123 [6]; 0.003162 µM
  GR value: 0.851 GR
BSJ-03-123 [6]; 0.01 µM
  GR value: 0.868 GR
BSJ-03-123 [6]; 0.03162 µM
  GR value: 0.883 GR
BSJ-03-123 [6]; 0.1 µM
  GR value: 0.862 GR
BSJ-03-123 [6]; 0.3162 µM
  GR value: 0.78 GR
BSJ-03-123 [6]; 1 µM
  GR value: 0.657 GR
BSJ-03-123 [6]; 3.162 µM
  GR value: 0.634 GR
BSJ-03-123 [6]; 10 µM
  GR value: 0.228 GR
[7]; 0.001 µM
  GR value: 0.991 GR
[7]; 0.003162 µM
  GR value: 0.962 GR
[7]; 0.01 µM
  GR value: 0.86 GR
[7]; 0.03162 µM
  GR value: 0.766 GR
[7]; 0.1 µM
  GR value: 0.619 GR
[7]; 0.3162 µM
  GR value: 0.497 GR
[7]; 1 µM
  GR value: 0.459 GR
[7]; 3.162 µM
  GR value: 0.365 GR
[7]; 10 µM
  GR value: 0.289 GR
Neratinib/HKI272 [8]; 0.0003162 µM
  GR value: 1.01 GR
Neratinib/HKI272 [8]; 0.001 µM
  GR value: 0.991 GR
Neratinib/HKI272 [8]; 0.003162 µM
  GR value: 1.01 GR
Neratinib/HKI272 [8]; 0.01 µM
  GR value: 1.06 GR
Neratinib/HKI272 [8]; 0.03162 µM
  GR value: 1.01 GR
Neratinib/HKI272 [8]; 0.1 µM
  GR value: 1.01 GR
Neratinib/HKI272 [8]; 0.3162 µM
  GR value: 0.959 GR
Neratinib/HKI272 [8]; 1 µM
  GR value: 0.876 GR
Neratinib/HKI272 [8]; 3.162 µM
  GR value: 0.503 GR
[9]; 0.0001 µM
  GR value: 1.08 GR
[9]; 0.0003162 µM
  GR value: 1.14 GR
[9]; 0.001 µM
  GR value: 1.01 GR
[9]; 0.003162 µM
  GR value: 1.05 GR
[9]; 0.01 µM
  GR value: 0.925 GR
[9]; 0.03162 µM
  GR value: -0.0619 GR
[9]; 0.1 µM
  GR value: -0.245 GR
[9]; 0.3162 µM
  GR value: -0.322 GR
[9]; 1 µM
  GR value: -0.175 GR
LEE011/Ribociclib [10]; 0.001 µM
  GR value: 0.991 GR
LEE011/Ribociclib [10]; 0.003162 µM
  GR value: 0.857 GR
LEE011/Ribociclib [10]; 0.01 µM
  GR value: 0.861 GR
LEE011/Ribociclib [10]; 0.03162 µM
  GR value: 0.86 GR
LEE011/Ribociclib [10]; 0.1 µM
  GR value: 0.822 GR
LEE011/Ribociclib [10]; 0.3162 µM
  GR value: 0.797 GR
LEE011/Ribociclib [10]; 1 µM
  GR value: 0.69 GR
LEE011/Ribociclib [10]; 3.162 µM
  GR value: 0.681 GR
LEE011/Ribociclib [10]; 10 µM
  GR value: 0.54 GR
